Structures can show the parent of a compound that is named as a salt.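 96-well plates; 48 h exposure; 5 concentrations. Endpoints by linear interpolation between flanking doses. Not reached: highest tested concentration assigned. GI50 = concentration required for 50% inhibition of growth.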 The source made the active and inactive calls. Rule as the data show it: active = GI50 up to about 1.1 µM and inactive = higher.
Legend:
Test in all cases: growth of human tumour cells (NCI), 48 h
NCI-H226 = system: NCI-H226
NCI-H460 = system: NCI-H460
PC-3 = system: PC-3
U-251 = system: U-251
CCRF-CEM = system: CCRF-CEM
MCF7 = system: MCF7
BT-549 = system: BT-549
RPMI-8226 = system: RPMI-8226
SR = system: SR
SF-539 = system: SF-539
UACC-62 = system: UACC-62
HL-60 = system: HL-60
A498 = system: A498
OVCAR-5 = system: OVCAR-5
SF-295 = system: SF-295
HCT-15 = system: HCT-15
RXF 393 = system: RXF 393
HOP-62 = system: HOP-62
COLO 205 = system: COLO 205
HT-29 = system: HT-29
NCI/ADR-RES = system: NCI/ADR-RES
MOLT-4 = system: MOLT-4
M14 = system: M14
SK-MEL-5 = system: SK-MEL-5
DU-145 = system: DU-145
SF-268 = system: SF-268
SNB-75 = system: SNB-75
HOP-92 = system: HOP-92
MDA-N = system: MDA-N
ACHN = system: ACHN
SK-OV-3 = system: SK-OV-3
A549 = system: A549
EKVX = system: EKVX
UACC-257 = system: UACC-257
KM12 = system: KM12
SW-620 = system: SW-620
OVCAR-3 = system: OVCAR-3
Hs-578T = system: Hs-578T
SK-MEL-28 = system: SK-MEL-28
HCT-116 = system: HCT-116
UO-31 = system: UO-31
Malme-3M = system: Malme-3M
SNB-19 = system: SNB-19
SK-MEL-2 = system: SK-MEL-2
K562 = system: K562
TK-10 = system: TK-10
NCI-H23 = system: NCI-H23
SN12C = system: SN12C
IGROV-1 = system: IGROV-1
NCI-H522 = system: NCI-H522
OVCAR-8 = system: OVCAR-8
T47D = system: T47D
MDA-MB-435 = system: MDA-MB-435
786-0 = system: 786-0
CAKI-1 = system: CAKI-1
LOX IMVI = system: LOX IMVI
OVCAR-4 = system: OVCAR-4
MDA-MB-231 = system: MDA-MB-231
HCC 2998 = system: HCC 2998

With `O=[N+]([O-])c1cc(Cc2cc([N+](=O)[O-])c3cccnc3c2O)c(O)c2ncccc12` the GI50 (NCI-H226) was 16.6 µM (inactive), the GI50 (NCI-H460) was 2.18 µM (inactive) and the GI50 (PC-3) was 4.41 µM (inactive). For the same compound, the GI50 (U-251) was 3.91 µM (inactive), the GI50 (CCRF-CEM) was 1.77 µM (inactive) and the GI50 (MCF7) was 4.4 µM (inactive). For the same compound, the GI50 (BT-549) was 21.7 µM (inactive), the GI50 (RPMI-8226) was 4.57 µM (inactive) and the GI50 (SR) was 0.845 µM (active). The GI50 (SF-539) was 10.6 µM (inactive), the GI50 (UACC-62) was 9.48 µM (inactive) and the GI50 (HL-60) was 1.61 µM (inactive). For the same compound, the GI50 (A498) was 14.2 µM (inactive), the GI50 (OVCAR-5) was 24.8 µM (inactive) and the GI50 (SF-295) was 6.15 µM (inactive). The GI50 (HCT-15) was 4.23 µM, the GI50 (RXF 393) was 5.32 µM (inactive) and the GI50 (HOP-62) was 9.1 µM (inactive). For the same compound, the GI50 (COLO 205) was 19.7 µM (inactive), the GI50 (HT-29) was 10.2 µM (inactive) and the GI50 (NCI/ADR-RES) was 3.6 µM (inactive). For the same compound, the GI50 (MOLT-4) was 2.12 µM (inactive), the GI50 (M14) was 6.07 µM (inactive) and the GI50 (SK-MEL-5) was 6.79 µM (inactive). For the same compound, the GI50 (DU-145) was 9.89 µM (inactive), the GI50 (SF-268) was 3.52 µM (inactive) and the GI50 (SNB-75) was 7.18 µM (inactive). The GI50 (HOP-92) was 5.96 µM (inactive), the GI50 (MDA-N) was 10.6 µM (inactive) and the GI50 (ACHN) was 5.6 µM (inactive). The GI50 (SK-OV-3) was 15.7 µM (inactive), the GI50 (A549) was 6.56 µM (inactive) and the GI50 (EKVX) was 6.37 µM (inactive). For the same compound, the GI50 (UACC-257) was 2.65 µM (inactive), the GI50 (KM12) was 6.71 µM (inactive) and the GI50 (SW-620) was 5.94 µM (inactive). The GI50 (OVCAR-3) was 2.38 µM (inactive), the GI50 (Hs-578T) was 9.51 µM (inactive) and the GI50 (SK-MEL-28) was 13.6 µM (inactive). The GI50 (HCT-116) was 3.35 µM (inactive), the GI50 (UO-31) was 4 µM (inactive) and the GI50 (Malme-3M) was 6.68 µM (inactive). For the same compound, the GI50 (SNB-19) was 6.78 µM (inactive), the GI50 (SK-MEL-2) was 11.1 µM (inactive) and the GI50 (K562) was 4.16 µM (inactive). For the same compound, the GI50 (TK-10) was 12.4 µM (inactive), the GI50 (NCI-H23) was 9.48 µM (inactive) and the GI50 (SN12C) was 4.55 µM (inactive). The GI50 (IGROV-1) was 3.31 µM (inactive), the GI50 (NCI-H522) was 3.51 µM (inactive) and the GI50 (OVCAR-8) was 3.6 µM (inactive). The GI50 (T47D) was 4.48 µM (inactive), the GI50 (MDA-MB-435) was 10.5 µM (inactive) and the GI50 (786-0) was 5.82 µM (inactive). The GI50 (CAKI-1) was 8.77 µM (inactive), the GI50 (LOX IMVI) was 3.91 µM (inactive) and the GI50 (OVCAR-4) was 4.05 µM (inactive). For the same compound, the GI50 (MDA-MB-231) was 3.4 µM (inactive).
`CCn1c2ccc(C(=O)CCCN(C)C)cc2c2cc(C(=O)CCCN(C)C)ccc21` was tested, and the GI50 (NCI-H226) was 2.74 µM (inactive), the GI50 (NCI-H460) was 0.421 µM (active) and the GI50 (PC-3) was 1.3 µM (inactive). For the same compound, the GI50 (U-251) was 2.24 µM (inactive), the GI50 (CCRF-CEM) was 0.395 µM (active) and the GI50 (MCF7) was 0.659 µM (active). For the same compound, the GI50 (BT-549) was 3.38 µM (inactive), the GI50 (RPMI-8226) was 1.77 µM (inactive) and the GI50 (HCC 2998) was 1.69 µM (inactive). For the same compound, the GI50 (SR) was 1.13 µM (inactive), the GI50 (SF-539) was 0.805 µM (active) and the GI50 (UACC-62) was 7.59 µM (inactive). The GI50 (HL-60) was 1.75 µM (inactive), the GI50 (A498) was 1.32 µM (inactive) and the GI50 (OVCAR-5) was 1.79 µM (inactive). The GI50 (SF-295) was 3.64 µM (inactive), the GI50 (HCT-15) was 1.27 µM and the GI50 (RXF 393) was 1.68 µM (inactive). For the same compound, the GI50 (HOP-62) was 0.701 µM (active), the GI50 (COLO 205) was 1.06 µM (active) and the GI50 (HT-29) was 0.509 µM (active). For the same compound, the GI50 (NCI/ADR-RES) was 4.93 µM (inactive), the GI50 (MOLT-4) was 0.256 µM (active) and the GI50 (M14) was 1.95 µM (inactive). For the same compound, the GI50 (SK-MEL-5) was 4.69 µM (inactive), the GI50 (DU-145) was 2.52 µM (inactive) and the GI50 (SF-268) was 1.75 µM (inactive). For the same compound, the GI50 (SNB-75) was 2.97 µM (inactive), the GI50 (HOP-92) was 3.03 µM (inactive) and the GI50 (MDA-N) was 2.05 µM (inactive). For the same compound, the GI50 (ACHN) was 0.759 µM (active), the GI50 (SK-OV-3) was 5.79 µM (inactive) and the GI50 (A549) was 0.867 µM (active). The GI50 (EKVX) was 1.79 µM (inactive), the GI50 (UACC-257) was 3.44 µM (inactive) and the GI50 (KM12) was 1.18 µM (inactive). For the same compound, the GI50 (SW-620) was 0.53 µM (active), the GI50 (OVCAR-3) was 1.27 µM (inactive) and the GI50 (Hs-578T) was 2.32 µM (inactive). The GI50 (SK-MEL-28) was 5.66 µM (inactive), the GI50 (HCT-116) was 0.593 µM (active) and the GI50 (UO-31) was 3.48 µM (inactive). For the same compound, the GI50 (Malme-3M) was 2.81 µM (inactive), the GI50 (SNB-19) was 1.6 µM (inactive) and the GI50 (SK-MEL-2) was 2.25 µM (inactive). For the same compound, the GI50 (K562) was 2.05 µM (inactive), the GI50 (TK-10) was 1.98 µM (inactive) and the GI50 (NCI-H23) was 1.61 µM (inactive). The GI50 (SN12C) was 0.946 µM (active), the GI50 (IGROV-1) was 0.889 µM (active) and the GI50 (NCI-H522) was 3.04 µM (inactive). For the same compound, the GI50 (OVCAR-8) was 0.533 µM (active), the GI50 (T47D) was 10.2 µM (inactive) and the GI50 (MDA-MB-435) was 1.27 µM (inactive). The GI50 (786-0) was 0.243 µM (active), the GI50 (CAKI-1) was 2.55 µM (inactive) and the GI50 (LOX IMVI) was 1.12 µM (active). The GI50 (OVCAR-4) was 1.18 µM (inactive) and the GI50 (MDA-MB-231) was 0.851 µM (active).
With `CC(C)C[C@H]1C(=O)N2CCC[C@H]2[C@]2(O)O[C@](NC(=O)[C@@H]3C=C4c5cccc6[nH]c(Br)c(c56)C[C@H]4N(C)C3)(C(C)C)C(=O)N12` [BROMOCRIPTINE MESYLATE] the GI50 (NCI-H226) was 51.2 µM (inactive), the GI50 (NCI-H460) was 10.8 µM (inactive) and the GI50 (PC-3) was 4.17 µM (inactive). The GI50 (U-251) was 35.8 µM (inactive), the GI50 (CCRF-CEM) was 4.56 µM (inactive) and the GI50 (MCF7) was 8.87 µM (inactive). The GI50 (BT-549) was > 100 µM (inactive), the GI50 (RPMI-8226) was 3.8 µM (inactive) and the GI50 (HCC 2998) was 32.8 µM (inactive). The GI50 (SR) was 6.11 µM (inactive), the GI50 (SF-539) was > 100 µM (inactive) and the GI50 (UACC-62) was > 100 µM (inactive). For the same compound, the GI50 (HL-60) was 2.51 µM (inactive), the GI50 (A498) was > 100 µM (inactive) and the GI50 (OVCAR-5) was > 100 µM (inactive). For the same compound, the GI50 (SF-295) was 39.8 µM (inactive), the GI50 (HCT-15) was 8.67 µM and the GI50 (RXF 393) was 24.7 µM (inactive). The GI50 (HOP-62) was > 100 µM (inactive), the GI50 (COLO 205) was 5.27 µM (inactive) and the GI50 (HT-29) was 13.6 µM (inactive). For the same compound, the GI50 (NCI/ADR-RES) was 9.35 µM (inactive), the GI50 (MOLT-4) was 4.34 µM (inactive) and the GI50 (M14) was 61.1 µM (inactive). For the same compound, the GI50 (SK-MEL-5) was 21.7 µM (inactive), the GI50 (DU-145) was > 100 µM (inactive) and the GI50 (SF-268) was 59.6 µM (inactive). The GI50 (SNB-75) was 40.9 µM (inactive), the GI50 (HOP-92) was > 100 µM (inactive) and the GI50 (MDA-N) was 69.8 µM (inactive). For the same compound, the GI50 (ACHN) was 13 µM (inactive), the GI50 (SK-OV-3) was > 100 µM (inactive) and the GI50 (A549) was 6.98 µM (inactive). The GI50 (EKVX) was 4.74 µM (inactive), the GI50 (UACC-257) was 49.5 µM (inactive) and the GI50 (KM12) was 9.82 µM (inactive). The GI50 (SW-620) was 72.6 µM (inactive), the GI50 (OVCAR-3) was 8.87 µM (inactive) and the GI50 (Hs-578T) was 25.2 µM (inactive). For the same compound, the GI50 (SK-MEL-28) was > 100 µM (inactive), the GI50 (HCT-116) was 5.33 µM (inactive) and the GI50 (UO-31) was 4.61 µM (inactive). For the same compound, the GI50 (Malme-3M) was 36.5 µM (inactive), the GI50 (SNB-19) was > 100 µM (inactive) and the GI50 (SK-MEL-2) was > 100 µM (inactive). The GI50 (K562) was 4.65 µM (inactive), the GI50 (TK-10) was 15.1 µM (inactive) and the GI50 (SN12C) was 56.1 µM (inactive). For the same compound, the GI50 (IGROV-1) was 67.5 µM (inactive), the GI50 (NCI-H522) was 34 µM (inactive) and the GI50 (OVCAR-8) was > 100 µM (inactive). For the same compound, the GI50 (T47D) was 28.2 µM (inactive), the GI50 (MDA-MB-435) was 38.2 µM (inactive) and the GI50 (786-0) was 53.2 µM (inactive). For the same compound, the GI50 (CAKI-1) was 46.1 µM (inactive), the GI50 (LOX IMVI) was > 100 µM (inactive) and the GI50 (OVCAR-4) was > 100 µM (inactive). The GI50 (MDA-MB-231) was > 100 µM (inactive).

— ChEMBL document CHEMBL1201862, “PubChem BioAssay data set” (2004)
